Assay [1] has as its target isolated recombinant JAK1 kinase domain (Homo sapiens (Human), UniProt P23458). Kind of assay: JAK1 enzyme assay (Caliper LabChip, Ki). In kind it is biochemical. The note with it: read-out: JAK1 Ki. The gist of the method: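 Ki derived via Morrison tight-binding model, ATP-competitive correction applied. Read-out: product/total ratio of a 5-carboxyfluorescein-tagged JAK3 peptide separated on Caliper LabChip after phosphorylation by isolated human JAK1 kinase domain (22 °C, 30 min; EDTA quench, 50 mM final).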

In assay [2] the test system is JAK1-dependent STAT6 phosphorylation downstream of IL-13 stimulation in BEAS-2B human bronchial epithelial cells. Kind of assay: JAK1 pathway assay in BEAS-2B cells (IL-13-pSTAT6, MSD). In kind it is cell-based. The note with it: Homo sapiens, BEAS-2B, BEAS-2B cells, IL-13 stimulation; read-out: IL-13 p-STAT6 BEAS-2B IC50.
Assay [3] concerns the target isolated recombinant JAK2 kinase domain (Homo sapiens (Human), UniProt O60674). Kind of assay: JAK2 enzyme assay (Caliper LabChip, Ki). Format: biochemical. In outline: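 Caliper LabChip readout of phosphorylated product as a fraction of total substrate, a fluorescently N-terminally labelled JAK3-derived peptide. Isolated human JAK kinase domains were incubated 30 min at 22 °C before EDTA quench (50 mM final).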

The results in this text go back to patent US11731943B2, “Therapeutic compounds, compositions and methods of use thereof” (priority 2016, dated 2023).

isolated recombinant JAK1 kinase domain, sequence (P23458 875-1153): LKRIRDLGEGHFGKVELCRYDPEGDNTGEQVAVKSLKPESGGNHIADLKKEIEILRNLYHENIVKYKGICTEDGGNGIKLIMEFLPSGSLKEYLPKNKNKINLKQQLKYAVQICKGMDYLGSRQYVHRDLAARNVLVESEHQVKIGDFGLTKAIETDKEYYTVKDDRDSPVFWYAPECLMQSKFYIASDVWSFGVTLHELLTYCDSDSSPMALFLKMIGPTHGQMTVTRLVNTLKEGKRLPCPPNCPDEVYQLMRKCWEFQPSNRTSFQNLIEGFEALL
isolated recombinant JAK2 kinase domain, sequence (O60674 849-1124): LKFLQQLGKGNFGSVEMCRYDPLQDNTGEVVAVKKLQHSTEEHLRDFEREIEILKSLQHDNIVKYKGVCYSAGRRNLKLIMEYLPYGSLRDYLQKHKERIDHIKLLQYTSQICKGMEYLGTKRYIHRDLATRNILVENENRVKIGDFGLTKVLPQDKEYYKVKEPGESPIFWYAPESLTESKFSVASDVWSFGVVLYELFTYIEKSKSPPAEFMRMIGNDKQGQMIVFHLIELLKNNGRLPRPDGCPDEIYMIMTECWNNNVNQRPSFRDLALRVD

Regarding `COC(=O)Nc1nn(C2(CC#N)CCN(Cc3ccc(-c4ccco4)nc3F)CC2F)cc1C(N)=O` (stereo not drawn) [Example 226, methyl N-[4-carbamoyl-1-[4-(cyanomethyl)-3-fluoro-1-[[2-fluoro-6-(2-furyl)-3-pyridyl]methyl]-4-piperidyl]pyrazol-3-yl]carbamate], the Ki in assay [1] amounted to 0.37 nM; in assay [3], 0.56 nM. Besides, the IC50 in assay [2] turned out to be 49 nM.
The like results for `CS(=O)(=O)Nc1cccc(CN2CCC(CC#N)(n3cc(C(N)=O)c(NC(=O)C4CC4)n3)CC2)c1F` [Example 78] were, in that order, 2.9 nM, 4.9 nM and over 1000 nM.
On to `CCc1ccc(-c2ccc(CN3CCC(CC#N)(n4cc(C(N)=O)c(NC(=O)C5CC5C#N)n4)C(F)C3)cc2O)cc1` (stereo not drawn) [Example 221, 3-[(2-cyanocyclopropanecarbonyl)amino]-1-[4-(cyanomethyl)-1-[[4-(4-ethylphenyl)-3-hydroxy-phenyl]methyl]-3-fluoro-4-piperidyl]pyrazole-4-carboxamide], for which the Ki in assay [1] stood at 0.3 nM; in assay [3], 1.7 nM. Moreover, the IC50 in assay [2] was 90 nM.
The like results for `CCn1ccc(-c2ccc(CN3CCC(CC#N)(n4cc(C(N)=O)c(NC(=O)C5CC5)n4)C(F)C3)cc2)n1` (stereo not drawn) [Example 217, 1-[4-(cyanomethyl)-1-[[4-(1-ethylpyrazol-3-yl)phenyl]methyl]-3-fluoro-4-piperidyl]-3-(cyclopropanecarbonylamino) pyrazole-4-carboxamide] were, in that order, 0.66 nM, 0.49 nM and 56 nM.
On the same counts, the results for `N#CCC1(n2cc(C(N)=O)c(NC(=O)C3CC3)n2)CCN(Cc2ccc(-c3ccccc3)c(Cl)c2)CC1` [Example 163, 1-[1-[(3-chloro-4-phenyl-phenyl)methyl]-4-(cyanomethyl)-4-piperidyl]-3-(cyclopropanecarbonylamino) pyrazole-4-carboxamide] are 2.1 nM, 18.5 nM and 103 nM.
Regarding `CS(=O)(=O)Nc1cc(CN2CCC(CC#N)(n3cc(C(N)=O)c(NC(=O)C4CC4)n3)CC2)ccc1F` [Example 79], the values for the Ki in assay [1] and in assay [3] were 3 nM and 14.2 nM, respectively. Moreover, the half-maximal inhibitory concentration (IC50) in assay [2] is over 1000 nM.
As to `Cc1cnn(-c2ccc(CN3CCC(CC#N)(n4cc(C(N)=O)c(NC(=O)C5CC5)n4)CC3)cc2)n1` [Example 253, 1-[4-(cyanomethyl)-1-[[4-(4-methyltriazol-2-yl)phenyl]methyl]-4-piperidyl]-3-(cyclopropanecarbonylamino) pyrazole-4-carboxamide], the Ki was determined as 1 nM in assay [1] and 5.6 nM in assay [3]. For the same molecule, the IC50 in assay [2] was determined as 56 nM.
As for `N#CC[C@]1(n2cc(C(N)=O)c(NC(=O)C3CC3)n2)CC[C@@H](N2CC(O)(C(F)(F)F)C2)CC1` [Example 137, 1-[1-(cyanomethyl)-4-[3-hydroxy-3-(trifluoromethyl)azetidin-1-yl]cyclohexyl]-3-(cyclopropanecarbonylamino) pyrazole-4-carboxamide], the Ki in assay [1] turned out to be 2.7 nM; in assay [3], 21.7 nM. The IC50 in assay [2] was over 1000 nM.
On the same counts, the results for `N#CCC1(n2cc(C(N)=O)c(NC(=O)C3CC3)n2)CCN(CC(F)(F)F)CC1` [Example 23] are 4.5 nM, 19.4 nM and 250 nM.
On the same counts, the results for `CCc1ccc(-c2ccc(CN3CCC(CC#N)(n4cc(C(N)=O)c(NC(=O)C5CC5)n4)C(F)C3)cc2O)cc1` (stereo not drawn) [Example 212, 1-[4-(cyanomethyl)-1-[[4-(4-ethylphenyl)-3-hydroxy-phenyl]methyl]-3-fluoro-4-piperidyl]-3-(cyclopropanecarbonylamino) pyrazole-4-carboxamide] are 0.22 nM, 0.3 nM and 27 nM.
On the same counts, the results for `Cn1ccc(-c2ccc(CN3CCC(CC#N)(n4cc(C(N)=O)c(NC(=O)C5CC5)n4)CC3)cc2)n1` [Example 82] are 4.9 nM, 14.3 nM and 688 nM.

Broadly, the Ki is the equilibrium dissociation constant of an inhibitor or competing ligand from its target. For orientation: IC50 means the concentration that gives 50% inhibition.
